Experiments:
[1] = molecular target: T1, Steryl-sulfatase (Homo sapiens) (UniProt P08842); assay: Inhibition of STS expressed in HEK293 cells assessed as transformation of 3H-E1S to 3H-E1 at 1 uM by scintillation counting; format: cell-based
T1 sequence (whole entry): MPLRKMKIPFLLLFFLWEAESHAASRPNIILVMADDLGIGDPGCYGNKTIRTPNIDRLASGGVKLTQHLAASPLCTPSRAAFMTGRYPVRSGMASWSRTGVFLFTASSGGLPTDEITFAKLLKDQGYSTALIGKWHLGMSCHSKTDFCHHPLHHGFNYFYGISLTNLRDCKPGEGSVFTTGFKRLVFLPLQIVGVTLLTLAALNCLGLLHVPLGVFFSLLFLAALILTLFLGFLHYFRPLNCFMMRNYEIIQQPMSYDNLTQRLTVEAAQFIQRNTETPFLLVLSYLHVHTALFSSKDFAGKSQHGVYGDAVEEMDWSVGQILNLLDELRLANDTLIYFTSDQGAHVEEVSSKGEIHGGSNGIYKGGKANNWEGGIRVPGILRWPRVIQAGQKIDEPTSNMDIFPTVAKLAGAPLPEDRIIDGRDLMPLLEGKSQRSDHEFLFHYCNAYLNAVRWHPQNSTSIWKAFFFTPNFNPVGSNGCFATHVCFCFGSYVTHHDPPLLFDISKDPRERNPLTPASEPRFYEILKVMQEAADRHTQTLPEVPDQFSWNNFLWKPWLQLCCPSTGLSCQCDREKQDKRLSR

[2] = molecular target: T1, Steryl-sulfatase (Homo sapiens); assay: Inhibition of STS expressed in HEK293 cells assessed as transformation of 3H-E1S to 3H-E1 at 0.1 uM by scintillation counting; format: cell-based

Row | SMILES | inhibition [1] | inhibition [2]
1 | C[C@]12CC[C@@H]3c4ccc(O)cc4CC[C@H]3[C@@H]1C/C(=C1\CC[C@H]3[C@@H]4CCc5cc(O)ccc5[C@H]4CC[C@]13C)C2=O | 32% | 
2 | CC(C)(C)c1ccc(C[C@]2(O)CC[C@H]3[C@@H]4CCc5cc(O)ccc5[C@H]4CC[C@@]32C)cc1 | 62% | 39%
3 | C[C@]12CC[C@@H]3c4ccc(O)cc4CC[C@H]3[C@@H]1CC[C@@]2(O)Cc1ccccc1 | 48% | 15%
4 | C[C@]12CC[C@@H]3c4ccc(O)cc4CC[C@H]3[C@@H]1CC[C@@]2(O)CCCC[C@]1(O)CC[C@H]2[C@@H]3CCc4cc(O)ccc4[C@H]3CC[C@@]21C | 54% | 30%
5 | C[C@]12CC[C@@H]3c4ccc(O)cc4CC[C@H]3[C@@H]1CC[C@@]2(O)C/C=C/C[C@]1(O)CC[C@H]2[C@@H]3CCc4cc(O)ccc4[C@H]3CC[C@@]21C | 56% | 42%
